{"source": "patent US5744471A", "about": "“Pyridazion quinoline compounds” (Zeneca Limited, priority 1993, dated 1998)", "key": {"[1]": {"biological_target": "T1, glycine receptor of the NMDA receptor complex (Rattus norvegicus, UniProt P35439)", "T1 construct": "Freshly dissected cortices and hippocampi are homogenized in 0.32 M sucrose; from tissue; host or cells: rat cerebral cortex and hippocampus, synaptic membranes (male Sprague-Dawley)", "assay": "[3H]-glycine binding assay (Test A; in-vitro glycine receptor assay)", "parameters": "species or system rat (male Sprague-Dawley)", "experimental": "The actions of compounds according to the invention as antagonists at the giycine receptor of the NMDA receptor complex can be shown by one or more standard tests such as the [^3 H]-glycine binding assay (Test A) and by tests in vivo such as ischemia induced by carotid occlusion in the gerbil model (Test B). In addition to these tests, compounds of the invention are assayed in the red nucleus test (Test C) and in the Rat Middle Cerebral Artery test (Test D). These tests confirm that compounds of the invention are NMDA receptor antagonists in vitro and in vivo.\nIn the [^3 H]-glycine binding assay, neuronal synaptic membranes are prepared from adult (about 250 g) male Sprague-Dawley rats. Freshly dissected cortices and hippocampi are homogenized in 0.32 M sucrose (110 mg/mL). Synaptosomes are isolated by centrifugation (1000 xg, 10 min), the supernatant is pelleted (20,000 xg, 20 min) and resuspended in double-distilled water. The suspension was centrifuged for 20 minutes at 8,000 xg. The resulting supernatant and buffy coat are washed twice (48,000 xg, 10 mins, resuspension in double-deionized water). The final pellet is quickly frozen (dry ice/ethanol bath) under double-deionized water and stored at -70° C.\nOn the day of the experiment, thawed synaptic membranes are homogenized with a Brinkmann Polytron (tm, Brinkmann Instruments, Westbury, N.Y.) tissue homogenizer in 50 millimolar tris(hydroxymethyl)aminomethane citrate, pH 7.1. The membranes are incubated with 0.04% Sufact-AMPS X100 (tm, Pierce, Rockford, Ill.) in buffer for 20 minutes at 37° C. and washed six times by centrifugation (48,000 xg, 10 min) and resuspended in buffer. The final pellet is homogenized at 200 mg wet weight/mL of the buffer for the binding assay.\nFor [^3 H]-glycine binding at the N-methyl-D-aspartate receptor, 20 nanomolar [^3 H]-glycine (40-60 Ci/mmol, New England Nuclear, Boston, Mass.) is incubated with the membranes suspended in 50 millimolar tris (hydroxymethyl)aminomethane citrate, pH 7.1 for 30 minutes at 4° C. Glycine, 1 millimolar, is used to define the nonspecific binding. Bound [^3 H]-glycine is isolated from free using a Brandel (Biomedical Research and Development Laboratories, Gaithersburg, Md.) cell harvester for vacuum filtration over glass fiber filters (Whatman GF/B from Brandel, Gaithersburg, Md.) presoaked in 0.025% polyethylenimine. The samples retained on the glass fiber filters are rinsed 3 times with a total of 2.5 mL ice cold buffer. Radioactivity is estimated by liquid scintillation counting. IC50 values are obtained from a least-squares regression of a logit-log transformation of the data. […] The other examples disclosed herein are glycine antagonists."}, "[2]": {"system": "NMDA-induced excitatory response of red nucleus cells", "assay": "Red Nucleus Test (Test C)", "type": "in vivo", "settings": "Rattus norvegicus, iv, read-out: ID50 (NMDA-induced excitatory response of red nucleus cells)", "experimental": "The purpose of this test is to determine the effects of intravenously administered glycine antagonists on the NMDA-induced excitatory response of red nucleus cells.\nThe procedure for the red nucleus test is as follows. Rats are anesthetized with chloral hydrate (400 mg/kg ip) and the femoral vein is catheterized for iv drug administration. Five-barrel micropipettes are stereotaxically positioned in the red nucleus. Typically, three to four of the five barrels are filled as follows: the recording barrel with 2M potassium citrate, the current balancing barrel with 4M NaCl, the drug barrel with 25 mM NMDA, and another drug barrel with 2.5 mM quisqualic acid (QA is only used in selectivity studies). NHDA is iontophoretically applied with an ejection current that is adjusted depending on the sensitivity of each individual red nucleus cell. The NMDA is cycled on and off (usually 30-60 sec. on and 60-120 sec. off) and the firing rate of the cell during each period is recorded. Once the baseline firing rate of the cell has been established, the test drug is administered iv. The effect of the drug on the NMDA-induced excitatory response of the red nucleus cell can be both qualitatively and quantitatively evaluated from the recordings and the raw data accumulated."}, "[3]": {"system": "neuronal damage in the hippocampus", "assay": "gerbil ischemic model, bilateral carotid occlusion (Test B)", "type": "in vivo, Mongolian gerbils", "settings": "10 mg/Kg ip, 45 minutes before and 5 minutes after occlusion", "experimental": "When testing in vivo using the gerbil ischemic model, adult female Mongolian gerbils (50-70 g) are anesthetized with 2 to 3% halothane. The bilateral common carotid arteries at the neck are exposed and occluded with microaneurysm clips. After 10 min (unless specified), the clips are removed and the blood flow through the carotid arteries is restored and the skin is sutured. Test compounds are administered intraperitoneally both pre- and post-occlusion, for example 45 minutes before and 5 minutes after occlusion of the carotid arteries. Sham-operated animals are treated in the same manner except that the arteries are not clamped. Gross behavioral observations along with motor activity are recorded for 2 hr on the first (24 hr) day following the occlusion. After 4 days, subjects are sacrificed (decapitation), brains are removed, fixed, sectioned and stained with hematoxylin/eosin and cresyl violet.\nThe brain sections are rated for neuronal damage in the hippocampus using the following rating scale:\n1=slight damage (up to 25%)--restricted to CAI/subiculum border\n2=moderate damage (up to 50%)--obvious damage, restricted to less than half of CA1 field […]\nSections (7 micron) are evaluated from each brain. […] The average brain damage rating score for each group is recorded, and the damage scores of the drug treated group are compared to the vehicle-treated group using Wilcoxon-Rank Sum test."}, "[4]": {"settings": "read-out: IC50 in the [3H]Gly test"}, "[5]": {"settings": "20 nanomolar [3H]-glycine, rat synaptic membranes, pH 7.1, 4° C., read-out: IC50 in the [3H]-glycine binding assay"}}, "note": "Where a name gives a salt, the structure may show the parent alone. Read-outs that look alike come from different tables or passages of the source.", "data": [{"smiles": "O=C(NCCn1nc(O)c2[nH]c3cc(Cl)ccc3c(=O)c2c1=O)c1ccccc1", "note": "[2-ethylbenzamidederivative]", "values": [{"measurement": "glycine receptor antagonist activity", "setting": "[1]; result in words", "result": "active as a glycine receptor antagonist"}]}, {"smiles": "CC(=O)OCCn1nc(O)c2c(=O)c3ccc(Cl)cc3[nH]c2c1=O", "note": "[3-(2-Acetoxyethyl), 3-(2-Acetoxyethyl)7-chloro-4-hydroxy-1,2,5,10-tetrahydropyridazino[4,5-]quinoline-1,10-dione]", "values": [{"measurement": "IC50", "setting": "[1]; [4]", "result": "> 100", "unit": "µM"}]}, {"smiles": "C/C(=C\\C(N)C(=O)O)CP(=O)(O)O", "note": "(stereo not shown) [CGP 37849]", "values": [{"measurement": "ED50", "setting": "[2]", "result": 1.7, "unit": "mg/kg"}]}, {"smiles": "O=c1c2ccc(Cl)cc2[nH]c2c(=O)n(CCO)nc(O)c12", "note": "[Example 1, 7-Chloro-1-hydroxy-3-(2-hydroxyethyl)-3,4,5,10-tetrahydropyridazino[4,5-b]quinoline-4,10-dione]", "values": [{"measurement": "IC50", "setting": "[1]; [5]", "result": 40, "unit": "µM"}]}, {"smiles": "O=C1c2ccccc2C(=O)N1CCn1nc(O)c2[nH]c3cc(Cl)ccc3c(=O)c2c1=O", "note": "[Example 4, 7-Chloro-4-hydroxy-2-(2-phthalimidoethyl)-1,2,5,10-tetrahydropyridazino[4,5-b]quinoline-1,10-dione]", "values": [{"measurement": "neuroprotection (relative to sham-operated control)", "setting": "[3]", "result": 35, "unit": "%"}]}, {"smiles": "O=c1c2ccc(Cl)cc2[nH]c2c(=O)n(-c3ccccc3)nc(O)c12", "note": "[Example 5, 7-Chloro-1-hydroxy-3-phenyl-3,4,5,10-tetrahydropyridazino[4,5-b]-quinoline-4,10-dione, choline salt]", "values": [{"measurement": "activity in the in-vitro glycine receptor assay", "setting": "[1]; result in words", "result": "inactive"}]}, {"smiles": "COc1ccc(-n2nc(O)c3c(=O)c4ccc(Cl)cc4[nH]c3c2=O)cc1", "note": "[Example 7, 7-Chloro-1-hydroxy-3-(4-methoxyphenyl)-3,4,5,10-tetrahydropyridazino[4,5-b]quinoline-4,10-dione]", "values": [{"measurement": "IC50", "setting": "[1]; [4]", "result": "> 100", "unit": "µM"}, {"measurement": "activity in the in-vitro glycine receptor assay", "setting": "[1]; result in words", "result": "inactive"}]}, {"smiles": "O=c1c2ccc(Cl)cc2[nH]c2c(=O)n(-c3ccc(O)cc3)nc(O)c12", "note": "[Example 9, 7-Chloro-1-hy droxy-3-(4-hydroxyphenyl)-3,4,5,10-tetrahydropyridazino[4,5-b]quinoline-4,10-dione]", "values": [{"measurement": "IC50", "setting": "[1]; [4]", "result": "> 100", "unit": "µM"}, {"measurement": "activity in the in-vitro glycine receptor assay", "setting": "[1]; result in words", "result": "inactive"}]}, {"smiles": "O=c1c2ccc(Cl)cc2[nH]c2c(O)nn(-c3ccc(O)cc3)c(=O)c12", "note": "[Example 10, 7-Chloro-4-hydroxy-2-(4-hydroxyphenyl)-1,2,5,10-tetrahydropyridazino[4,5-b]quinoline-1,10-dione]", "values": [{"measurement": "IC50", "setting": "[1]; [5]", "result": 0.12, "unit": "µM"}, {"measurement": "neuroprotection (relative to sham-operated control)", "setting": "[3]", "result": "over 80%"}]}, {"smiles": "O=c1c2ccc(Cl)cc2[nH]c2c(=O)n(-c3ccc(Cl)cc3)nc(O)c12", "note": "[Example 16, 7-Chloro-1-hydroxy-3-(4-chlorophenyl)-3,4,5,10-tetrahydropyridazino[4,5-b]quinoline-4,10-dione]", "values": [{"measurement": "activity in the in-vitro glycine receptor assay", "setting": "[1]; result in words", "result": "inactive"}]}, {"smiles": "Cc1ccc(-n2nc(O)c3c(=O)c4ccc(Cl)cc4[nH]c3c2=O)cc1", "note": "[Example 18, 7-Chloro-1-hydroxy-3-(4-methylphenyl)-3,4,5,10-tetrahydropyridazino[4,5-b]quinoline-4,10-dione]", "values": [{"measurement": "activity in the in-vitro glycine receptor assay", "setting": "[1]; result in words", "result": "inactive"}]}, {"smiles": "CC(C)c1ccc(-n2nc(O)c3c(=O)c4ccc(Cl)cc4[nH]c3c2=O)cc1", "note": "[Example 20, 7-Chloro-1-hydroxy-3-(4-isopropylphenyl)-3,4,5,10-tetrahydropyridazino[4,5- ]-quinoline-4,10-dione]", "values": [{"measurement": "activity in the in-vitro glycine receptor assay", "setting": "[1]; result in words", "result": "inactive"}]}, {"smiles": "NC1CCN(O)C1=O", "note": "(stereo not shown) [HA-966]", "values": [{"measurement": "ED50", "setting": "[2]; reference agents", "result": 7.9, "unit": "mg/kg"}]}]}
